Test results reported in patent publication US20230066946A1, “1,5-DIPHENYLPYRAZOLYL-3-OXYALKYL ACIDS AND 1-PHENYL-5-THIENYLPYRAZOLYL-3-OXYALKYL ACIDS AND THE USE THEREOF FOR CONTROL OF UNWANTED PLANT GROWTH” (Bayer Aktiengesellschaft, priority 2019, published 2023).

Assays:
[1] = tested on: ECHCG; assay: Pre-emergence herbicidal action against ECHCG; assay type: in vivo, Echinochloa crus-galli; settings: scored visually after about 3 weeks vs untreated controls, 100% = plants have died, 0% = like control plants
From the text: (§1) Seeds of mono- and dicotyledonous weed plants are placed in plastic pots in sandy loam soil (doubly sown with one species each of mono- or dicotyledonous weed plants per pot) and covered with soil. The compounds of the invention, formulated in the form of wettable powders (WP) or as emulsion concentrates (EC), are then applied onto the surface of the covering soil as aqueous suspension or emulsion with addition of 0.5% additive at a water application rate equivalent to 600 litres per hectare. After the treatment, the pots are placed in a greenhouse and kept under good growth conditions for the trial plants. After about 3 weeks, the effect of the preparations is scored visually in comparison with untreated controls as percentages. For example, 100% activity=the plants have died, 0% activity=like control plants. [table] Tables 4.1-4.15 below show the effects of selected compounds of the general formula (I) according to Tables 1 to 3 on various harmful plants at an application rate corresponding to 1280 or 320 g/ha, which have been obtained by the aforementioned experimental method.

[2] = tested on: SETVI; assay: Pre-emergence herbicidal action against SETVI; assay type: in vivo, Setaria viridis; settings: 1280 g/ha, scored visually after about 3 weeks vs untreated controls
Outline: (§2)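 Greenhouse pot test on sown, soil-covered weed seeds; spray of WP or EC formulation at 1280 or 320 g/ha onto covering soil. Effect rated visually after about 3 weeks (0% = like control, 100% = dead).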

[3] = tested on: AMARE; assay: Pre-emergence herbicidal action against AMARE; assay type: in vivo, Amaranthus retroflexus; settings: scored visually after about 3 weeks vs untreated controls; for Pre-emergence action at 320 g/ha against AMARE in %: 100% = plants have died, 0% = like control plants; for Pre-emergence action against AMARE in %: 1280 g/ha
Outline: as §2

[4] = tested on: POLCO; assay: Pre-emergence herbicidal action against POLCO; assay type: in vivo, Polygonum convolvulus; settings: 320 g/ha, scored visually after about 3 weeks vs untreated controls
From the text: as §1

[5] = tested on: STEME; assay: Pre-emergence herbicidal action against STEME; assay type: in vivo, Stellaria media; settings: scored visually after about 3 weeks vs untreated controls
Outline: as §2

[6] = tested on: AMARE; assay: Post-emergence herbicidal action against AMARE; assay type: in vivo, Amaranthus retroflexus; settings: visual rating about 3 weeks after treatment
Outline: (§3)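 Visual % damage (100% = dead, 0% = like untreated control) was scored about 3 weeks after foliar spraying of one-leaf-stage plants grown in sandy loam. Doses were 1280 or 320 g/ha, applied as aqueous WP/EC preparations with 0.5% additive in 600 litres per hectare water.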

[7] = tested on: MATIN; assay: Post-emergence herbicidal action against MATIN; assay type: in vivo, Matricaria inodora; settings: visual rating about 3 weeks after treatment
Outline: as §3

[8] = tested on: PHBPU; assay: Post-emergence herbicidal action against PHBPU; assay type: in vivo, Pharbitis purpurea; settings: 320 g/ha, visual rating about 3 weeks after treatment
Protocol: (§4) [table] Seeds of mono- and dicotyledonous weed plants are placed in plastic pots in sandy loam soil (twin sowing with one species each of mono- or dicotyledonous weed plants per pot), covered with soil and cultivated in a greenhouse under controlled growth conditions. 2 to 3 weeks after sowing, the test plants are treated at the one-leaf stage. The compounds of the invention, formulated in the form of wettable powders (WP) or as emulsion concentrates (EC), are applied to the green parts of the plants as aqueous suspension or emulsion with addition of 0.5% additive at a water application rate equivalent to 600 litres per hectare. After the test plants have been kept in the greenhouse under optimum growth conditions for about 3 weeks, the activity of the preparations is rated visually in comparison to untreated controls. For example, 100% activity=the plants have died, 0% activity=like control plants. Tables 5.1-5.16 below show the effects of selected compounds of the general formula (I) according to Tables 1 to 3 on various harmful plants at an application rate corresponding to 1280 or 320 g/ha, which have been obtained by the aforementioned experimental method.

[9] = tested on: VIOTR; assay: Post-emergence herbicidal action against VIOTR; assay type: in vivo, Viola tricolor; settings: 320 g/ha, visual rating about 3 weeks after treatment
Protocol: as §4

[10] = tested on: VERPE; assay: Post-emergence herbicidal action against VERPE; assay type: in vivo, Veronica persica; settings: 320 g/ha, visual rating about 3 weeks after treatment
Protocol: as §4

[11] = tested on: VERPE; assay: Pre-emergence herbicidal action against VERPE; assay type: in vivo, Veronica persica; settings: 320 g/ha, scored visually after about 3 weeks vs untreated controls
From the text: as §1

[12] = tested on: STEME; assay: Post-emergence herbicidal action against STEME; assay type: in vivo, Stellaria media; settings: 1280 g/ha, visual rating about 3 weeks after treatment
Outline: as §3

[13] = tested on: SETVI; assay: Post-emergence herbicidal action against SETVI; assay type: in vivo, Setaria viridis; settings: 1280 g/ha, post-emergence at one-leaf stage, rated visually after about 3 weeks vs untreated controls
Protocol: as §4

[14] = tested on: POLCO; assay: Post-emergence herbicidal action against POLCO; assay type: in vivo, Polygonum convolvulus; settings: 320 g/ha, visual rating about 3 weeks after treatment
Protocol: as §4

Compound | Pre-emergence action at 1280 g/ha against ECHCG in % [1] [%] | Pre-emergence action against SETVI in % [2] [%] | Pre-emergence action at 320 g/ha against AMARE in % [3] [%] | Pre-emergence action against AMARE in % [3] [%] | Pre-emergence action against POLCO in % [4] [%] | Pre-emergence action against STEME in % ([5]; 1280 g/ha) [%] | Post-emergence action against AMARE in % ([6]; 320 g/ha) [%] | Post-emergence action against AMARE in % ([6]; 1280 g/ha) [%] | Post-emergence action against MATIN in % ([7]; 320 g/ha) [%] | Post-emergence action against MATIN in % ([7]; 1280 g/ha) [%] | Post-emergence action against PHBPU in % [8] [%] | Post-emergence action against VIOTR in % [9] [%] | Post-emergence action against VERPE in % [10] [%] | Pre-emergence action against STEME in % ([5]; 320 g/ha) [%] | Pre-emergence action against VERPE in % [11] [%] | Post-emergence action against STEME in % [12] [%] | Post-emergence action against SETVI in % [13] [%] | Post-emergence action against POLCO in % [14] [%]
COC(=O)COc1nn(-c2ccccc2)c(-c2ccc(F)cc2)c1Br [I-101] | 100 | 100 | 90 | 90 | 100 | 100 | 80 | 100 | 90 | 90 | 90 | 100 | 80 |  |  |  |  | 
C[Si](C)(C)COC(=O)COc1nn(-c2ccccc2F)c(-c2ccc(F)c(F)c2)c1Br [I-102] | 100 | 100 | 90 | 100 | 100 | 90 | 80 | 90 | 80 | 100 | 90 | 90 | 80 | 90 | 80 | 100 |  | 
COC(=O)C(C)Oc1nn(-c2ccccc2)c(-c2cc(F)cc(F)c2)c1Cl (centres unmarked) [I-165, Methyl 2-{[4-chloro-5-(3,5-difluorophenyl)-1-phenyl-1H-pyrazol-3-yl]oxy}propanoate] |  | 100 | 90 | 100 |  | 100 |  | 100 |  | 100 | 80 | 80 | 80 |  | 100 | 100 | 90 | 80
C#CCNC(=O)COc1nn(-c2ccccc2)c(-c2ccc(F)cc2)c1Br [III-006] | 100 | 100 | 90 | 90 | 90 | 100 | 80 | 100 |  |  | 80 | 80 | 80 |  | 90 |  |  | 
C=CCNC(=O)COc1nn(-c2ccc(F)cc2)c(-c2cccc(F)c2)c1Br [III-015] | 100 | 100 |  | 100 | 90 | 100 | 80 |  |  |  | 80 | 80 | 90 |  | 90 |  |  | 80
